Values of other authors in patent US20220235034A1, “SELECTIVE HISTAMINE H3 RECEPTOR ANTAGONISTS FOR TREATING AUTISM SPECTRUM DISORDER” (RICHTER GEDEON NYRT., priority 2019, published 2022).

Tests used:
[1] = target: T1, histamine H3 receptor (Homo sapiens, UniProt Q9Y5N1); conditions: according to WO 2014/136075A1; cited from earlier work
[2] = target: T1, histamine H3 receptor; conditions: cited from earlier work
[3] = target: T2, histamine H3 receptor (Rattus norvegicus, UniProt Q9QYN8); conditions: in vivo in rats; cited from earlier work
T2 construct: from tissue; host or cells: living rat (in vivo)
T2 sequence (Q9QYN8 whole entry): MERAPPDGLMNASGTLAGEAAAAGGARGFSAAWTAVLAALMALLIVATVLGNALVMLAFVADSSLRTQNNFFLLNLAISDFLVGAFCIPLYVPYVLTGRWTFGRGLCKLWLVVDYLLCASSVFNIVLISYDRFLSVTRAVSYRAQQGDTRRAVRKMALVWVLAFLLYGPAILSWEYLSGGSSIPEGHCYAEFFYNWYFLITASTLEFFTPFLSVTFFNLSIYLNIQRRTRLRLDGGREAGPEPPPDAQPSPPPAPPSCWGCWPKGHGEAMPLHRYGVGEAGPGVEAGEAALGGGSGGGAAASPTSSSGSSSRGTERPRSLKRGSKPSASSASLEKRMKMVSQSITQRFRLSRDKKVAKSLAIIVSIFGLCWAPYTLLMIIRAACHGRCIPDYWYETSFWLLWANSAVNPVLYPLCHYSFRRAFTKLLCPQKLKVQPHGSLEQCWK

[4] = system: prenatally VPA-exposed mice; conditions: cited from earlier work
[5] = target: T3, human monoamine oxidase A (Homo sapiens, UniProt P21397); conditions: cited from earlier work
T3 sequence (P21397 1-527): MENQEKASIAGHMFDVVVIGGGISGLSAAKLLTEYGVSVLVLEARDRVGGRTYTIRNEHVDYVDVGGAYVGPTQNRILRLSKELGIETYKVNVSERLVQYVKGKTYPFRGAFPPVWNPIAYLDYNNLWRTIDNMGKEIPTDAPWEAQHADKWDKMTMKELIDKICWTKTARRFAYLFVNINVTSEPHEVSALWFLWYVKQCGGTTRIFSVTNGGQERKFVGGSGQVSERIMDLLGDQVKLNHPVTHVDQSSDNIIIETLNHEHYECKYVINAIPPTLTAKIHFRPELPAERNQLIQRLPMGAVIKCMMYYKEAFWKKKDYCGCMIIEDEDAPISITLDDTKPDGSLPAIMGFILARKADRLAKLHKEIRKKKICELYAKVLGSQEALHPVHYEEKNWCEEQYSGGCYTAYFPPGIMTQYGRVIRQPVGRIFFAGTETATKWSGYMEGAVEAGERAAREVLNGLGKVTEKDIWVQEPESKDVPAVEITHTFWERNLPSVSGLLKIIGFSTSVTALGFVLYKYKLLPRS

[6] = target: T4, human monoamine oxidase B (Homo sapiens, UniProt P27338); conditions: cited from earlier work
T4 sequence (P27338 1-520): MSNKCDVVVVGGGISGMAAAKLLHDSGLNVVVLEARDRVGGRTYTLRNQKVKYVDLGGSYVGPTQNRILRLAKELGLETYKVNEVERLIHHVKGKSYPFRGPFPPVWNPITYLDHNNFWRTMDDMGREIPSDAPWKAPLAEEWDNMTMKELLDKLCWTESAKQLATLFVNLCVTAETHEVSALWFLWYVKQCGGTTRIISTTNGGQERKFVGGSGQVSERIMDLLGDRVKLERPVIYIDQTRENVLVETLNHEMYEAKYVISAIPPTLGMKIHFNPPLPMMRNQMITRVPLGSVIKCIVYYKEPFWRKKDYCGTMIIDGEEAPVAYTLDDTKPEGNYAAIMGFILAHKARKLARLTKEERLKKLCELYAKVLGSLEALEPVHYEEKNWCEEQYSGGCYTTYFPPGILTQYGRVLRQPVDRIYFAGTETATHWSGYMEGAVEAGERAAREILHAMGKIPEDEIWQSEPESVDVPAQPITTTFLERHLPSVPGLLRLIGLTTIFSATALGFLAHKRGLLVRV

[7] = target: T5, rat monoamine oxidase A (Rattus norvegicus, UniProt P21396); conditions: cited from earlier work
T5 sequence (P21396 1-526): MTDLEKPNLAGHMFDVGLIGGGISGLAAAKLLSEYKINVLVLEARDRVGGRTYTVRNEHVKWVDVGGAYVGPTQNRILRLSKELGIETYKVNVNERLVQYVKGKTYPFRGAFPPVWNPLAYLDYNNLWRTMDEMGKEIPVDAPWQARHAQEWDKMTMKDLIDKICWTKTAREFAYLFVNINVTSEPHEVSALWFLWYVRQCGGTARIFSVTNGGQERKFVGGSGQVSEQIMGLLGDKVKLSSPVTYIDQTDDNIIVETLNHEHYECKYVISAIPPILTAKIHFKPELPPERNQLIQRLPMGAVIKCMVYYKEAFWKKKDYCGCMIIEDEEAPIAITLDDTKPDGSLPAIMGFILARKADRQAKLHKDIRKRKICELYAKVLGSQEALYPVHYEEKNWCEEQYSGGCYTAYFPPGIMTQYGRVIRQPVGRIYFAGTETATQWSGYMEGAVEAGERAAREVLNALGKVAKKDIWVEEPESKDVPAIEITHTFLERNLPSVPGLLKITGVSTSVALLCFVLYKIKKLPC

[8] = target: T6, rat monoamine oxidase B (Rattus norvegicus, UniProt P19643); conditions: cited from earlier work
T6 sequence (P19643 1-520): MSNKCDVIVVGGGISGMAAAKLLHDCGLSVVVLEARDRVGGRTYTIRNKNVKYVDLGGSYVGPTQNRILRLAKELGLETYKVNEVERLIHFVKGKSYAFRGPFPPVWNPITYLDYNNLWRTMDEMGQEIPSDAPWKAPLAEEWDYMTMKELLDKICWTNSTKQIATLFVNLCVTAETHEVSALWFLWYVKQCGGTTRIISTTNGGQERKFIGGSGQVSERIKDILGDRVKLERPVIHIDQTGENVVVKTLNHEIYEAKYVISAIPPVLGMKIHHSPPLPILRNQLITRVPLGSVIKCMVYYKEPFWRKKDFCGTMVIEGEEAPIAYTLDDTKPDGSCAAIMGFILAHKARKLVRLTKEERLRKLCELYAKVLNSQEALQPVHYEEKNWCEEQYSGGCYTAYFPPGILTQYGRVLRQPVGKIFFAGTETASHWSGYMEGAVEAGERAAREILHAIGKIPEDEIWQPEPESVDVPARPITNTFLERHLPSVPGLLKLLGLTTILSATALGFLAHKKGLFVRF

[9] = 3 mg/kg intraperitoneally; cited from earlier work
[10] = system: prenatal VPA model; conditions: in vivo; cited from earlier work
[11] = system: ASD subjects; conditions: humans; cited from earlier work
[12] = 3 mg/kg intraperitoneally, prenatal valproate model in mice

T1 sequence (Q9Y5N1 whole entry, species assumed): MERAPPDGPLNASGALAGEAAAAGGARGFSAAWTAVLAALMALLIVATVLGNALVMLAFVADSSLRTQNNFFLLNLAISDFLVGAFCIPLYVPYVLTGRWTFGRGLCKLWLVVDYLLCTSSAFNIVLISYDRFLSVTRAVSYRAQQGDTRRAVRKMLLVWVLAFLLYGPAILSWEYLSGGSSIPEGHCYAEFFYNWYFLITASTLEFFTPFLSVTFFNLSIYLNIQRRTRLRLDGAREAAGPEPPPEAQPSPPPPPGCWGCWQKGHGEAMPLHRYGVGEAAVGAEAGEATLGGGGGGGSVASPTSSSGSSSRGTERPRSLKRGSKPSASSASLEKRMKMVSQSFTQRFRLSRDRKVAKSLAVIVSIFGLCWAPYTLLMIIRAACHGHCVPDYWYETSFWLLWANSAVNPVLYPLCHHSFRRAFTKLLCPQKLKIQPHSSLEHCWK

SMILES: CC(=O)N1CCC(Oc2ccc(OCCCN3CCC[C@H]3C)cc2)CC1 [Compound of Formula 1, 1-[4-(4-{3-[(2R)-2-methylpyrrolidin-1-yl]-propoxy}-phenoxy)-piperidin-1-yl]-ethan-1-on]
- affinity for histamine H3 receptor [1]: high affinity
- selectivity for histamine H3 receptor [1]: highly selective
- functional behaviour in vitro [2]: receptor antagonist/inverse agonist
- histamine H3 receptor antagonism in vivo [3]: shows histamine H3 receptor antagonism in vivo

SMILES: O=C(c1ccc(OCCCc2cnc[nH]2)cc1)C1CC1 [ciproxifan]
- excessive repetitive behavior [4, 12]: improved
- social deficits [4, 12]: improved
- social novelty preference ([4]; prenatally VPA-exposed mice): did not have an effect
- inhibition of monoamine oxidase A, concentration range [5]: micromolar concentration range
- preference between monoamine oxidase A and B ([6]; human and rat enzymes): slight preference for monoamine oxidase B
- inhibition of monoamine oxidase B, concentration range ([6]; human): micromolar concentration range
- inhibition of monoamine oxidase A, concentration range [7]: micromolar concentration range
- inhibition of monoamine oxidase B, concentration range [8]: micromolar concentration range
- plasma exposures [9]: micromolar range

SMILES: CC[C@H](C)[C@@H]1NC(=O)[C@H](Cc2ccc(O)cc2)NC(=O)[C@@H](N)CSSC[C@@H](C(=O)N2CCC[C@H]2C(=O)N[C@@H](CC(C)C)C(=O)NCC(N)=O)NC(=O)[C@H](CC(N)=O)NC(=O)[C@H](CCC(N)=O)NC1=O [oxytocin]
- behavioral impairments in the prenatal VPA model [10]: improve behavioral impairments
- efficacy signals in ASD subjects [11]: produced efficacy signals
